Patent publication US20230312577A1, “DUAL KINASE-BROMODOMAIN INHIBITORS” (MONASH UNIVERSITY, priority 2020, published 2023)

Legend:
[1] = system: MYC target genes; assay: RNA-Seq and Gene Set Enrichment Analysis (GSEA) in OPM2 cells; format: cell-based, human; conditions: 250 nM, 2 h
Experimental: OPM2 cells (4×10^6) were treated with 250 nM of Cpd 010 or DMSO vehicle for 2 h. Cells pellets were collected, and RNA was extracted using the Nucleospin RNA extraction kit (Macherey-Nagel) as per the manufacturer's instructions. The QuantSeq 30 mRNA-seq Library Prep Kit for Illumina (Lexogen) was used to generate libraries as per the manufacturer's instructions, which were sequenced on the NextSeq (Illumina; 75 bp SE). GSEA2-2.2.2 was used for identification of enriched signatures obtained from the MSigDB Hallmarks datasets (Liber-zon et al., 2015). Samples were prepared in technical triplicates.

[2] = target: T1, BRD2 (Homo sapiens, UniProt P25440); assay: Cellular thermal shift assay (CETSA) in Ramos cells; format: cell-based; conditions: 20 μM, 40 min, vs DMSO
T1 construct: endogenous in cells; host or cells: Ramos
T1 sequence (P25440 whole entry): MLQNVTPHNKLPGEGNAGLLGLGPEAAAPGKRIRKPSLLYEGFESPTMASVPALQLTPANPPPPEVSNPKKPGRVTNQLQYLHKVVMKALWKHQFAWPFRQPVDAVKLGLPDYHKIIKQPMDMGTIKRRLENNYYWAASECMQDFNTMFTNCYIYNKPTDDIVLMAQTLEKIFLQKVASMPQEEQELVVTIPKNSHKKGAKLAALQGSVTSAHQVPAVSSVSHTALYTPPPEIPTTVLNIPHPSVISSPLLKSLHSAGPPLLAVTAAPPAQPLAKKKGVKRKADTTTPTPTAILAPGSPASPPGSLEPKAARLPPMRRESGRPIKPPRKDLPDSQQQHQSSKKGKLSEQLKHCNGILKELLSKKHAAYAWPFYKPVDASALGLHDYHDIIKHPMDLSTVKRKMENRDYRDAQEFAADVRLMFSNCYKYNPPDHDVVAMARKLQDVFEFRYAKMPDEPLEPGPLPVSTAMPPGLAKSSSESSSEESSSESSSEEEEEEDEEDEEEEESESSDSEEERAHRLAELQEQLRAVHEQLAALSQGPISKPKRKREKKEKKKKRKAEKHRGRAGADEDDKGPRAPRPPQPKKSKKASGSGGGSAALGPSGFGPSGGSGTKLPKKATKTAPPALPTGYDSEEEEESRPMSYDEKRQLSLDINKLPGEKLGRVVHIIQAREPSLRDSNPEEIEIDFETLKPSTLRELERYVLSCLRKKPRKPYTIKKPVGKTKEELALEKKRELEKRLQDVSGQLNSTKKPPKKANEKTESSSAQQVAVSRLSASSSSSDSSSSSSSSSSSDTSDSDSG
Experimental: Ramos cells (human Burkitt lymphoma cell line) at 20×10^6 were washed in PBS followed by resuspension in 5 mL serum-free RPMI. They were treated either with Cpd 010 or DMSO at 20 μM for 40 min at 37° C. with 5% CO2. Cells were then collected, resuspended in PBS and separated into PCR tubes. They were heated at designated temperature for strictly 3 min followed by another 3 min at 25° C. on ABI Applied Biosystems 9902 Veriti PCR Thermal Cycler. Immediately, they were placed in liquid nitrogen for snap freezing. The samples were freeze-thawed until the final samples were place on ice. They were centrifuged and supernatants were collected. Loading dye was mixed and these were processed as per our Western Blot protocol (see above). The following primary antibodies were used; rabbit BRD4 (Cell Signaling, #13440), rabbit BRD2 (Cell Signaling, #5848), and mouse anti-β-actin (Sigma-Aldrich, clone AC-74).

[3] = system: MYC gene; assay: RT-qPCR in OPM2 cells; format: cell-based, human; conditions: 2 h
Experimental: OPM2 cells (1×10^6) were treated with Cpd 010 or DMSO vehicle at indicated concentrations for 2 h. RNA was extracted from cell pellets using the PureLink™ RNA Mini Kit (ThermoFisher Scientific, #121839025) as per the manufacturer's instructions. cDNA was syn thesised with the SuperScript™ III cDNA synthesis kit (ThermoFisher Scientific, #18080093) according to the manufacturer's instructions. Quantitative PCR analysis of samples was per formed on the QuantStudio7 Flex RT-PCR system (ThermoFisher) with SYBR™ Master Mix (ThermoFisher Scientific, #4472903). L32 were used as the human control gene. Primer se quences were: Homo sapiens MYC F: […] R: […], Homo sapiens L32 F: […] R: TTGTGAGCGATCTCGGCAC. Each RT-qPCR am plification was performed in triplicate (technical triplicates) and repeated 2 times (biological replicates).

[4] = system: panel of human multiple myeloma cell lines; assay: Apoptosis assay (TMRE, flow cytometry); format: cell-based; conditions: 48 h
Experimental: A panel of human multiple myeloma cell lines (3×10^5) was incubated in the presence of Cpd 010 or DMSO vehicle control with indicated concentrations for 48 h before flow cytometric analysis of viability using Tetramethylrhodamine ethylester (TMRE) stains. Further apoptotic assay using only OPM2 cells was carried out using Cpd 010 or DMSO with TMRE stains.

[5] = system: MLL-AF9 cells (IBET-151-sensitive and IBET-151-resistant); assay: Apoptosis assay in BET-inhibitor-resistant cells (Annexin V/PI); format: cell-based, mouse; conditions: 72 h, Annexin V/PI
Experimental: Mouse AML cells; MLL-AF9 (IBET-151-sensitive and IBET-151-resistant) (5×10^4) were treated with indicated compounds for 72 h. Apoptotic analysis was performed by flow cytometry using Annexin V/propidium iodide (PI) stains. Data were collected on a BD LSR-Fortessa X20 (BD Biosciences) and analysed using FlowJo Software, version 10.0.7 (Tree Star). IC50 were calculated using the GraphPad Prism Software Version 7.0c. Data are representative of biological triplicates.

[6] = system: pAKT (PI3K substrate) and MYC (BET target protein); assay: Western Blot analysis in OPM2 cells; format: cell-based, human; conditions: 4 hours
Experimental: OPM2 cells (1.2×10^6) were treated with Cpd 010 or DMSO control at indicated concentrations for 4 hours. Lysates were prepared in ice-cold RIPA lysis buffer (Thermofisher, Life Technologies) and supplemented with Halt protease phosphatase inhibitor cocktail (Thermofisher, Pierce Biotechnology). Protein concentrations of lysate samples were determined by bicinchoninic acid assay (BCA assay) using the Thermo Scientific Pierce BCA Protein Assay Kit (ThermoFisher, Life Technologies) as per manufacturer's instructions. Absorbance for protein concentration estimation was measured using a BMG OPTIMA (Fluostar optima, BMG Labtech). Lysates (25-50 μg) were separated on pre-cast gels (Bis-Tris 4-12% gradient gels) (Bolt, Life Technologies) and transferred onto polyvinylidene difluoride (PVDF) membranes (Immobilon-FL, Merck). The membranes were sequentially incubated with primary antibodies o.n. at 4° C.; mouse anti-β-actin (Sigma-Aldrich, clone AC-74), rabbit anti-cMyc (Cell Signaling, #9402S), rabbit anti-pAKT Ser473 (Cell Signaling, #9271), rabbit anti-pS6 Ser240/244 (Cell Signaling, #2215). Subsequently they were incubated with horse radish pe-roxidase (HRP)-conjugated secondary antibodies for 1-2 h at r.t before the detection of proteins by enzymatic (chemiluminescent) reaction using a ChemiDoc^Tm XRS+ System (Bio-Rad La-boratories Inc.). […]

[7] = In vivo assessment of maximum tolerated dose (MTD)
Description: The Peter MacCallum Cancer Centre Animal Ethics Committee approved all in vivo procedures in this study. B6.SJL-PtprcPepc/BoyJ (B6.CD45.1) mice were purchased from the Walter and Eliza Hall Institute (Melbourne, VIC). For enhanced solubility, Cpd 010 was reconstituted in double dose with 60% Hydroxypropyl-B-cyclodextrin (HPBCD; Cyclodextrin Technologies Development Inc.) and subsequently diluted with ultrafiltered water in 1:1 ratio prior to injection. Vehicle control was 60% HPBCD subsequently diluted 1:1 ratio with ultrafiltered water prior to injection for the final concentration of 30% HPBCD. MTD was carried out in 6-8 week old, non-tumour bearing female mice starting from 25 mg/kg of Cpd 010, 5 day intraperitoneal injection. Six mice received Cpd 010 and two mice received vehicle (30% HPBCD). Full Blood Examination (FBE), serum, spleen weight and morphological examination for toxicity were assessed on day 8 and day 15. In the absence of toxicity further dose escalation was carried out.

**Q.** For `CC(=O)N1c2ccc(-c3ccc(CNC(=O)c4cn5cc(-c6cnc(N)nc6)nc(N6CCOCC6)c5n4)cc3)cc2CC[C@@H]1C` [Cpd 010, (S)-N-(4-(1-acetyl-2-methyl-1,2,3,4-tetrahydroquinolin-6-yl)benzyl)-6-(2-aminopyrimidin-5-yl)-8-morpholinoimidazo[1,2-a]pyrazine-2-carboxamide], which gene set enrichment [1] is on record?
**A.** Its gene set enrichment is “enrichment against MYC target genes with a trend toward MTORC1 signaling genes”.

**Q.** And the “clearance of BRD2 protein with increasing temperature” value [2]?
**A.** The value was “delayed clearance”.

**Q.** What about the “MYC mRNA level” value [3] of the same compound?
**A.** The value was “significant decrease in MYC mRNA level”.

**Q.** And the “relative sensitivity of the cell lines” value ([4]; U266 express MYCN instead of c-MYC)?
**A.** Its value is “OPM2 cells were the most sensitive and U266 was the least sensitive”.

**Q.** And the “induction of apoptosis in multiple myeloma cell lines” value ([4]; six cell lines)?
**A.** The value was “induced dose-dependent apoptosis in five of the six treated cells”.

**Q.** What about the “apoptosis in I-BET151-resistant MLL-AF9 cells” value [5] of the same compound?
**A.** Its value is “capable of inducing apoptosis in I-BET151-resistant MLL-AF9 cells, comparable to the I-BETE151-sensitive cells”.

**Q.** And the “levels of pAKT and MYC” value [6]?
**A.** Its value is “suppressed levels of both pAKT (PI3K substrate) and MYC (BET target protein) at all test concentrations”.

**Q.** What about the “spleen and body weight” value ([7]; 50 mg/kg) of the same compound?
**A.** Its value is “no changes in spleen and body weight”.

**Q.** What about the “FBE at day 8” value ([7]; 50 mg/kg, day 8) of the same compound?
**A.** Its value is “moderate thrombocytopenia”.

**Q.** What about the “FBE on day 15” value ([7]; 50 mg/kg, day 15) of the same compound?
**A.** Its value is “recovered to the normal level”.

**Q.** And the MTD at 5 day ([7]; B6.SJL-Ptprc<a>Pepc<b>/BoyJ (B6.CD45.1), mouse, in vivo, ip, non-tumour bearing female mice, 5 day intraperitoneal injection)?
**A.** Its MTD at 5 day is 50 mg/kg.
